Reference: patent US6465494B1, “Methods for treatment of cystic fibrosis” (Cell Pathways, Inc., priority 2001, dated 2002)
Read-outs that look alike come from different tables or passages of the source.

Columns and labels:
[1] = target: T1, GST-cGB-PDE5 fusion protein (Homo sapiens, UniProt O76074); experiment: cGMP binding assay with GST-cGB-PDE5 fusion protein; conditions: for competition with cGMP binding to GST-cGB-PDE5 at high concentration: compound at high concentration, cGMP 2 μM
T1 construct: made in house; host or cells: E. coli BL21 (DE3)
From the text: RT-PCR method is used to obtain the cGB domain of PDE5 with forward and reverse primers designed from bovine PDE5A cDNA sequence (McAllister-Lucas L. M et al, J. Biol. Chem. 268, 22863-22873, 1993) and the selection among PDE 1-10 families. 5′-3′, Inc. kits for total RNA followed by oligo (dT) column purification of mRNA are used with HT-29 cells. […] It is then cloned into pGEX-5X-3 glutathione-S-transferase (GST) fusion vector (Pharmacia Biotech )with tac promoter, and EcoRI and XhoI cut sites. The fusion vector is then transfected into E. Coli BL21 (DE3) bacteria (Invitrogen). The transfected BL21 bacteria is grown to log phase, and then IPTG is added as an inducer. The induction is carried at 20° C. for 24 hrs. The bacteria are harvested and lysed. The soluble cell lysate is incubated with GSH conjugated Sepharose 4B (GSH-Sepharose 4B). The GST-cGB-PDE5 fusion protein can bind to the GSH-Sepharose beads, and the other proteins are washed off from beads with excessive cold PBS.
Then, the mixture is transferred to Brandel MB-24 cell harvester with GF/B as the filter membrane followed by 2 washes with 10 mL of cold 5 mM potassium buffer(pH 6.8). The membranes are then cut out and transferred to scintillation vials followed by the addition of 1 mL of H2O and 6 mL of Ready Safe™ liquid scintillation cocktail to each vial. The vials are counted on a Beckman LS 6500 scintillation counter.
The quenching by filter membrane or other debris are also calibrated.

[2] = target: PDE5 (Homo sapiens, UniProt O76074); experiment: cGMP PDE inhibition, 3H-cGMP hydrolysis: PDE5; assay type: biochemical; design: partially purified cGMP-specific PDE isolated from HT-29 cells; endogenous in cells; host or cells: HT-29
Experimental: (Thompson, W. J., Teraski, W. L., Epstein, P. M., Strada, S. J., Advances in Cyclic Nucleotide Research, 10:69-92, 1979, which is incorporated herein by reference). […] The mixture is incubated at 30° C. for 10 minutes with isolated PDE2 and/or PDE5. Reactions are terminated, for example, by boiling the reaction mixture for 75 seconds. After cooling on ice, 100 μl of 0.5 mg/mL snake venom (O. Hannah venom available from Sigma) is added and incubated for 10 minutes at 30° C. This reaction is then terminated by the addition of an alcohol, e.g. 1 mL of 100% methanol. Assay samples are applied to 1 mL Dowex 1-X8 column; and washed with 1 mL of 100% methanol. The amount of radioactivity in the breakthrough and the wash from the column is combined and measured with a scintillation counter. The degree of phosphodiesterase inhibition is determined by calculating the amount of radioactivity in drug-treated reactions and comparing against a control sample (a reaction mixture lacking the tested compound but with drug solvent).
Compounds of this invention are also PDE2 and PDE5 inhibitors as taught in part U.S. patent application Ser. No. 09/046,739 filed Mar. 24, 1998. […] The amount of radioactivity in the breakthrough and the wash from the columns in then measured with a scintillation counter. […]

[3] = target: native bovine PDE5 (Bos taurus, UniProt Q28156); conditions: read-out: Kd of cGMP binding, native bovine PDE5; cited from earlier work
[4] = system: U937 cells; experiment: apoptosis induction of U937 cells (active caspase 3 immunofluorescence); assay type: cell-based; conditions: 24 hours
Experimental: The U937 monocyte cell line was derived from a histocytic lymphoma and can be driven to differentiate into an ‘activated macrophage like’ state by treatment with 5nM phorbal ester (TPA). Treated U937 cells become adherent, increase their cytoplasmic volume and express macrophage-specific cell surface markers. The presence and level of PDE2 and 5 mRNA in both differentiated and non-differentiated U937 cells was confirmed by performing RT-PCR experiments on total RNA.
U937 cells (from ATCC Rockville, Md.) were grown in RPMI media supplemented with 5% FCS, glutamine, antibiotic/antimycotic and sodium pyruvate. Total RNA was isolated from two U937 cultures, one treated with 5nM TPA for 48 hours and one grown in normal media as listed above, using the Rouche High Pure RNA Isolation Kit (cat# 1 828 665) as per manufacturers protocol. cDNA was then synthesized from the total RNA using GibcoBRL Superscriptll (Cat # 18064-022) reverse transcriptase as per manufacturers protocol. The resulting cDNA was used as a template for RT-PCR reactions using primer sets specific for PDE2 (forward: […], reverse: […]) or PDE5 (forward: […], reverse: […]). mRNA for PDE2 and 5 were both present in the untreated U937 cells. Upon treatment with TPA, the relative amounts of PDE2 mRNA increased 5 fold. Therefore, U937 cells treated with TPA and driven to differentiate into an activated macrophage like state have elevated levels of PDE2 mRNA (see FIG. 1).
The presence of PDE2 and PDE5 protein within U937 cells was confirmed by indirect immunofluorescence (IIF). U937 cells were cultured as above. Two U937 cultures, one grown in the presence of 5 nM TPA for 48 hours and one grown in normal media were processed. All cultures were collected by centrifugation (Shandon Cytospin, 2 minutes @ 600 rpm) onto poly-L lysine-coated slides and immediately fixed in fresh 3% paraformaldehyde buffered in PBS for 10 minutes. Adherent cultures were grown on coverslips and fixed as above. […]
The level of apoptosis in U937 cells was quantified by scoring 500 consecutive cells for the presence of active caspase 3. […]

Row | Structure (SMILES) | competition with cGMP in binding to the cGMP binding sites of GST-cGB-PDE5 ([1]; 3H-cGMP 2 μM, 22° C., 1 hour) | other results
1 | CCCCOC1C2OP(=O)(O)OCC2OC1n1cnc2c(N)ncnc21 (stereo not shown) [2′-O-butyl-cAMP] | did not compete | 
2 | CCCCOC1C2OP(=O)(O)OCC2OC1n1cnc2c(=O)[nH]c(N)nc21 (stereo not shown) [2′-O-butyl-cGMP] | did not compete | 
3 | Nc1ncnc2c1ncn2[C@@H]1O[C@@H]2COP(=O)(O)O[C@H]2[C@H]1O [Cyclic AMP] |  | competition with cGMP in binding to the cGMP binding sites of GST-cGB-PDE5 [1]: did not compete
4 | O=c1[nH]cnc2c1ncn2[C@@H]1O[C@@H]2COP(=O)(O)O[C@H]2[C@H]1O [Cyclic IMP, cyclic IMP] |  | competition with cGMP binding to GST-cGB-PDE5 at high concentration [1]: can partially compete
5 | CC1=C(CC(=O)NCc2ccccc2)c2cc(F)ccc2/C1=C\c1ccncc1 [Example 1, (Z)-5-Fluoro-2-Methyl-(4-Pyridinylidene)-3-(N-Benzyl)-Indenylacetamide] |  | IC50 [2]: 680 nM
6 | Nc1nc2c(nc(Br)n2[C@@H]2O[C@@H]3COP(=O)(O)O[C@H]3[C@H]2O)c(=O)[nH]1 [Example 8-bromo-cGMP, 8-bromo-cGMP] |  | competition with cGMP binding to GST-cGB-PDE5 at high concentration [1]: can partially compete
7 | O=C([O-])C1CCN(c2nc(NCc3ccc4c(c3)OCO4)c3cc(Cl)ccc3n2)CC1.[Na+] [Example E4021] | None of the PDE5 inhibitors showed any competition with cGMP | 
8 | CSc1ccc(/C=C2/C(C)=C(CC(=O)O)c3cc(F)ccc32)cc1 [Sulindac sulfide, sulindac sulfide] | None of the PDE5 inhibitors showed any competition with cGMP | 
9 | Nc1ccn([C@@H]2O[C@@H]3COP(=O)(O)O[C@H]3[C@H]2O)c(=O)n1 [cCMP, cyclic CMP] | did not compete | 
10 | Nc1nc2c(ncn2[C@@H]2O[C@@H]3COP(=O)(O)O[C@H]3[C@H]2O)c(=O)[nH]1 [cGMP, cyclic 3′,5′-guanosine monophosphate] |  | Kd ([1]; read-out: Kd of cGMP binding to GST-cGB-PDE5 fusion protein, two cGMP binding sites): 1600 ± 200 nM; Kd [3]: 1300 nM
11 | O=c1ccn([C@@H]2O[C@@H]3COP(=O)(O)O[C@H]3[C@H]2O)c(=O)[nH]1 [cUMP, cyclic UMP] | did not compete | 
12 | CC1=C(CC(=O)O)c2cc(F)ccc2/C1=C\c1ccc(S(C)(=O)=O)cc1 [exisulind] | None of the PDE5 inhibitors showed any competition with cGMP | 
13 | COc1ccc(C2CNC(=O)C2)cc1OC1CCCC1 (stereo not shown) [rolipram, reference compound] |  | levels of apoptosis (active caspase 3) ([4]; 0.5uM): No increase in the levels of apoptosis compared to normal background
14 | CCCc1nn(C)c2c(=O)[nH]c(-c3cc(S(=O)(=O)N4CCN(C)CC4)ccc3OCC)nc12 [sildenafil, reference compound] |  | levels of apoptosis (active caspase 3) ([4]; 0.3nM): No increase in the levels of apoptosis compared to normal background
15 | CCCOc1ccccc1-c1nc2nn[nH]c2c(=O)[nH]1 [zaprinast] | None of the PDE5 inhibitors showed any competition with cGMP | 
